Here are results for five molecules from patent US7470821B2, “Aldolase-inhibiting aromatic compounds” (Valorisation-Recherche, Limited Partnership, priority 2003, dated 2008).

Read-outs that look alike come from different tables or passages of the source.

The target of one assay is T1, rabbit muscle aldolase (Oryctolagus cuniculus, UniProt P00883).
T1 sequence (P00883 1-364): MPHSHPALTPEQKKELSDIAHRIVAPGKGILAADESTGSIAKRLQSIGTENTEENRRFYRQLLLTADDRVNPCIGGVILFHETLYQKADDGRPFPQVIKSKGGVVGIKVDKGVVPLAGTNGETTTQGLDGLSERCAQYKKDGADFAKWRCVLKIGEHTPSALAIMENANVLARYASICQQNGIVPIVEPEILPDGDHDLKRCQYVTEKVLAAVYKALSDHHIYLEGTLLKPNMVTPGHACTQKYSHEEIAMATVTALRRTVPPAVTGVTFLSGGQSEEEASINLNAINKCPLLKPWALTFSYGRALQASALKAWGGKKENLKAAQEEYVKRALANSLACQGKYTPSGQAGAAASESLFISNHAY
The settings on record: cited from earlier work; for Ki: Blonski et al., 1997.

Assay [1] has as its target T2, native aldolase from rabbit muscle (RM) (Oryctolagus cuniculus, UniProt P00883).
T2 construct: made in house
T2 sequence (P00883 1-364): T1 sequence (P00883 1-364)
In words: Aldolase activity by coupled enzyme test (TIM/GDH), inactivation and reactivation kinetics. The assay is classed as biochemical. The protocol: Aldolase activity was measured using a coupled enzyme test system: the triose-phosphate isomerase and glycerol-3-phosphate deshydrogenase (TIM/GDH) system, following oxidation of the NADH (Boehringer-Mannheim, France) at 340 nm, by means of a SAFAS spectrophotometer preheated to 25° C. Testing began with the addition of the substrate (Fru(1.6)P2; […] in final concentration), to complete an aldolase solution created in a triethanolamine buffer (TEA buffer) (100 Mm TEA/HCl; 50 mM NaCl; 1 mM EDTA, pH 7.6; ionic strength 0.15), 0.42 mM of NADH, and containing both enzyme systems (10 μg/mL of GDH and 1 μg/mL of TIM) for a final volume of 1 mL. The construction, overexpression and purification of recombinant aldolase were carried out in accordance with Morris A. J. et al., 1993 (J. Biol. Chem., 265:1095-1100) and Berthiaume L. et al., 1993 (J. Biol. Chem., 268:10826-10835).
The substrate cleavage rate was determined by measuring the decrease in absorbance/minute at 340 nm. The aldolase was dialyzed overnight at 4° C. against a TEA buffer prior to use. The protein concentration was determined by spectrophotometry, using ε280=0.91 mL.mg^−1.cm^−1 as an extinction coefficient. Subunit concentration was determined on the basis of a molecular weight of 159,000 for an aldolase tetramer. • Kinetic Method:
In the extreme situation where k−2 approaches zero, a reversible slow-binding inhibitor may resemble an irreversible one directed toward the active site. In this situation, the equation eqn.(3) is used for this type of inhibition (Meloche H. P., 1967, Biochemistry, 6:2273-2280). The semi-inactivation time of the enzyme (t1/2) is defined as a function of the mutual inhibitor concentration and is graphically represented by a straight line crossing the Y-axis at […] and crossing the X-axis at −1/Ki. • Experimental Protocol:
Native aldolase (5 μM of subunits) is incubated in the presence of FHN-P (0.05-1 mM) in TEA buffer. Enzyme activity is analyzed as a function of time using 10 μl aliquot portions.
Inactivation kinetics follow pseudo-first-order kinetics, and kinetic parameters Ki and k2 are determined by using the equation eqn.(3). To determine the reactivation rate, aldolase (25 μM of subunits in the TEA buffer) is incubated with 500 μM of FHN-P until reaching 90% inactivation. Excess inhibitor is removed by ultrafiltration with a PM-30 Millipore membrane. The enzyme-inhibitor complex is incubated in the TEA buffer (15 μM of subunits at final concentration) containing hexitol-P2 (10 mM). Aliquot portions (10 μl) are removed at different times to measure aldolase activity.
Controls involve repeating the protocol without FHN-P. The reactivation process is analyzed as if it were a first-order reaction. • Monitored by UV-Visible Differential Spectroscopy.

The mark [2] stands for this setting: rabbit muscle aldolase, read-out: dissociation constant (or inhibition constant) Ki.

Turning to `O=P(O)(O)Oc1cccc(OP(=O)(O)O)c1` [RSN-P2], the Ki at rabbit muscle aldolase (setting [2]) was approximately 50 µM.

Take `O=Cc1ccc(OP(=O)(O)O)cc1` [HBA-P, benzaldehyde-4-phosphate]: the Ki at rabbit muscle aldolase (setting [2]) was approximately 500 µM.

Consider `O=P(O)(O)Oc1ccc(OP(=O)(O)O)cc1` [HQN-P2], for which the Ki at rabbit muscle aldolase (setting [2]) is approximately 135 µM.

As to `O=Cc1ccc2cc(O)ccc2c1O` [DHNA, 1,6-dihydroxy-2-naphthaldehyde, reference compound], in assay [1] (250 μM, same conditions as Table 1), the “aldolase inactivation (in words)” value was “totally inactive”. Moreover, the Specific activity in assay [1] (RM 0.2 mg/mL, compound 250 μM, TEA buffer pH 7.6, 80 min incubation, RM alone 12.5 ± 0.5) came to 12.5 ± 0.5 Unit/mg.

Regarding `O=Cc1ccc(OP(=O)(O)O)cc1O` [2-hydroxybenzaldehyde-4-phosphate], the “reduction of aldolase activity” value at rabbit muscle aldolase (inhibitor concentration of around 200 μM) is reported as 80%. For the same molecule, at rabbit muscle aldolase (reversible time-dependent inhibitor, read-out: global inhibition constant Ki*), the Ki is 35 ± 5 µM.
